From US20070112032A1, “Prevention and/or reduction of photoreceptor degeneration with retinoids” (priority 2003, published 2007)

Tests used:
[1] = system: photoreceptor layer of rats exposed to blue light; test: Blue light (480 nm) photoreceptor damage in rats, retinal structure by histology; format: in vivo, Sprague-Dawley rats; design: key to Protective Activity: * means a protective effect of the photoreceptor layer to damage from blue light radiation.; **: Greater effectiveness is shown by increasing number of *'s.; ***: Greater effectiveness is shown by increasing number of *'s.; X means no such protective effect; settings: for thickness of the photoreceptor layer: FIG. 2, oral 5 days before blue light, tazarotene 3 mg/kg/day, Compound A 10 mg/kg/day, compared with vehicle and antagonists; for thickness of the photoreceptor layer / Protective Activity: rats; for Protective Activity: oral dosing 5 days, last dose 2 hours before 8 hours blue light (480 nm, 12000 LUX)
Description: (§1) Adult male abino Sprague-Dawley rats (weight 400±30 g) were used for the following examples. After 18 hours of dark adaptation, animals were housed in specially designed acrylic cages and exposed to high intensity (12000 LUX) of blue fluorescent light (480 nm) for 8 hours. The light intensity was measured with a digital light meter. Each animal was housed separately. The room was maintained at 73° F. throughout the experiment. Animals were orally dosed with the appropriate retinoid or positive control, i.e. brimonidine, for 5 days with the last dose administered 2 hours before blue-light exposure. After the light exposure, the animals were kept in the dark room and recovered for an additional 5 days. Retinal function was evaluated with flash ERG analysis. Retinal structure was assessed by histology.
The following retinoids were evaluated for preventing damage to the photoreceptor layer of rats subjected to exposure to blue light.
(The RAR agonist, tazarotene, is an RARβ and […] retinioid. The RXR agonist also has some RAR agonist activity.)
In this Example, the above experiment is repeated with the RAR antagonist, which has antagonist activity at the α, β and […] retinoid receptor subtype dosed in combination with the RAR agonist and the RXR agonist.
The following retinoid compounds were tested in the above method with the results reported as shown.

[2] = system: photoreceptor layer of rats exposed to blue light; test: Blue light (480 nm) photoreceptor damage in rats, retinal function by flash ERG; format: in vivo, Sprague-Dawley rats; settings: FIG. 3, ERG wave versus time, oral 5 days before blue light
Description: as §1

[3] = system: photoreceptors of rats and mice; settings: Sparrow PNAS 2003, Sieving PNAS 2001; cited from earlier work

Compound | Protective Activity [1] | further results
CC(/C=C/[C@@H]1C[C@]1(C)c1ccc2c(c1)C(C)(C)CCC2(C)C)=C\C(=O)O [Compound A, 3,7-Dimethyl-6(S),7(S)-methano-7-[1,1,4,4-tetramethyl-1,2,3,4-tetrahydronaphth-7-yl]-2E, 4E-heptadienoic acid] | ** | thickness of the photoreceptor layer [1]: greater than the photoreceptor layers of the animals dosed with the RAR or RXR antagonists; protective effect to the photoreceptor layer measured by ERG [2]: show a protective effect
CCCOc1c(\C(CC)=C(F)/C=C/C(C)=C/C(=O)O)cc(C(C)C)cc1C(C)C [Compound B, (2E,4E,6E)-7-(3,5-Diisopropyl-2-propoxy-phenyl)-6-fluoro-3-methyl-nona-2,4,6-trienoic acid] | X | 
CCc1ccc(C2=CC(C)(C)Sc3ccc(C#Cc4ccc(C(=O)O)cc4)cc32)cc1 [Compound C] | X | effect of RAR antagonist on effectiveness of RAR agonist and RXR agonist ([1]; FIG. 5, RAR antagonist dosed in combination with the RAR agonist and the RXR agonist): severely diminishes the effectiveness of both the RAR agonist and the RXR agonists
Cc1ccc(C2CC(C)(C)Oc3c(Br)cc(NC(=O)c4ccc(C(=O)O)c(F)c4)cc32)cc1 (centres unmarked) [Compound D, 2-Fluoro-4-[6′-(2″,2″-dimethyl-4″-tolylchromanyl)-8'-bromo]carbamoyl benzoic acid] | X | 
CC1(C)CCC(C)(C)c2c1cc(C(=O)Nc1cc(F)c(C(=O)O)c(F)c1)c(O)c2Cl [Compound E, 4-[(4-Chloro-3-hydroxy-5,5,8,8-tetramethyl-5,6,7,8-tetrahydro-naphthalene-2-carbonyl)-amino]-2,6-difluoro-benzoic acid] | ** | 
CCC[C@]1(c2ccc3c(c2)C(C)(C)CCC3(C)C)C[C@H]1/C=C/C(C)=C/C(=O)O [Compound F, 3-Methyl-7-propyl-6(S),7(S)-methano-7[1,1,4,4-tetrametyl-1,2,3,4-tetrahydro-7-yl]-2(E),4(E)-heptadienoic acid] | X | 
Brc1c(NC2=NCCN2)ccc2nccnc12 [brimonidine, reference compound] |  | thickness of the photoreceptor layer [1]: much greater than the thickness of the photoreceptor layers of the animals dosed with the vehicle alone
CC1=C(/C=C/C(C)=C/C=C/C(C)=C\C(=O)O)C(C)(C)CCC1 [isotretinoin, 13-cis retinoic acid] |  | protection of photoreceptors from light damage [3]: can protect photoreceptors of rats and mice from light damage
